What was measured:
Assay type in all cases: in vivo, mouse
G1H-G93A transgenic mice [1] = experiment: Clinical symptomatological evaluation (day of onset, survival period, disease period, stage periods)
Method in brief: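 Male hemizygous G1H-G93A mice (mutant human SOD1, 25 copies) given compound suspended in 0.5% methylcellulose at 5 mg/kg orally once daily, from day 80 after birth or from onset (stage 1 symptoms) to endpoint; n=10 per group. Daily clinical staging gave onset day, survival and disease period in days, as mean±SD.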

G1H-G93A transgenic mice [2] = experiment: Exercise tolerance test: extension reflex test; conditions: for Extension reflex test score: 5 mg/kg oral daily from 80th day (before onset), score 0-2
Description: (§1) The following five kinds of exercise tolerance tests were conducted every fifth day from the 70th day after birth to evaluate the ability to exercise in the respective exercise tolerance tests. That is, the days for the exercise tolerance tests were every fifth days, such as the 70th day, 75th day, 80th day, 85th day and so on, after birth. The exercise tolerance tests were conducted throughout the survival period, and the post-mortem evaluation was based on the definitions of the following five kinds of exercise tolerance tests.
As for extension reflex, extension of the hindlimbs is normally observed when a mouse is suspended in the air by its tail.
The evaluation of extension reflex test of the mice was performed based on the following criteria: Score 0=Extension reflex is recognized in both of the hindlimbs; Score 1=Extension reflex is recognized only one hindlimb; and Score 2=Extension reflex is not recognized in both of the hindlimbs. The post-mortem evaluation of the extension reflex test is defined as score 2.

G1H-G93A transgenic mice [3] = experiment: Exercise tolerance test: footprint test; conditions: 5 mg/kg oral daily from 80th day (before onset), score 0-4
Description: as §1
Both hindlimbs of a mouse are dipped in a black ink bottle, and then the mouse is allowed to walk on white paper. The footprints of the two hindlimbs of the mouse after the walking are analyzed. […] The post-mortem evaluation of the footprint test is defined as score 4.

[4] = 5 mg/kg oral daily from 80th day after birth (before onset), Mann-Whitney's U test, log-rank test
[5] = 5 mg/kg oral once a day from 80th day after birth (before onset), average±SD

N#Cc1cc(-c2n[nH]c(-c3ccncc3)n2)ccn1 [compound (b), 4-(5-pyridin-4-yl-1H-[1,2,4]triazol-3-yl)pyridine-2-carbonitrile]
time periods for the respective stages in comparison to placebo group (G1H-G93A transgenic mice [1]; 5 mg/kg oral daily from 80th day after birth (before onset), Mann-Whitney's U test): extended period of the respective stages with significant difference
disease period extending effect in comparison to placebo group (G1H-G93A transgenic mice [1]; [4]): significant extension of the disease period
onset delaying effect in comparison to placebo group (G1H-G93A transgenic mice [1]; [4]): significant delaying of the day of onset
survival period extending effect in comparison to placebo group (G1H-G93A transgenic mice [1]; [4]): significant extension of the survival period
day of onset (G1H-G93A transgenic mice [1]; [5]): 111.6 ± 3.7 days
disease period (G1H-G93A transgenic mice [1]; [5]): 24.3 ± 3.4 days
survival period (G1H-G93A transgenic mice [1]; [5]): 134.9 ± 3.4 days
time period of clinical symptomatological stage 1 (G1H-G93A transgenic mice [1]; [5]): 7.4±0.7 days
time period of clinical symptomatological stage 2 (G1H-G93A transgenic mice [1]; [5]): 6.4±1.2 days
time period of clinical symptomatological stage 3 (G1H-G93A transgenic mice [1]; [5]): 5.3±1.2 days
time period of clinical symptomatological stage 4 (G1H-G93A transgenic mice [1]; [5]): 3.5±0.5 days
time period of clinical symptomatological stage 5 (G1H-G93A transgenic mice [1]; [5]): 1.7±0.5 days
Extension reflex test score (G1H-G93A transgenic mice [2]; 70th day after birth, 5 mg/kg): 0.0±0.0
Extension reflex test score (G1H-G93A transgenic mice [2]; 75th day after birth, 5 mg/kg): 0.0±0.0
Extension reflex test score (G1H-G93A transgenic mice [2]; 80th day after birth, 5 mg/kg): 0.0±0.0
Extension reflex test score (G1H-G93A transgenic mice [2]; 85th day after birth, 5 mg/kg): 0.0±0.0
Extension reflex test score (G1H-G93A transgenic mice [2]; 90th day after birth, 5 mg/kg): 0.0±0.0
Extension reflex test score (G1H-G93A transgenic mice [2]; 95th day after birth, 5 mg/kg): 0.0±0.0
Extension reflex test score (G1H-G93A transgenic mice [2]; 100th day after birth, 5 mg/kg): 0.0±0.0
Extension reflex test score (G1H-G93A transgenic mice [2]; 105th day after birth, 5 mg/kg): 0.0±0.0
effect in extension reflex test as compared to placebo group (G1H-G93A transgenic mice [2]; 105th, 110th, 115th and 120th day, 5 mg/kg oral daily from 80th day after birth, Mann-Whitney's U test): significant effects
Extension reflex test score (G1H-G93A transgenic mice [2]; 110th day after birth, 5 mg/kg): 0.1±0.3
Extension reflex test score (G1H-G93A transgenic mice [2]; 115th day after birth, 5 mg/kg): 0.5±0.5
Extension reflex test score (G1H-G93A transgenic mice [2]; 120th day after birth, 5 mg/kg): 1.3±0.5
Extension reflex test score (G1H-G93A transgenic mice [2]; 125th day after birth, 5 mg/kg): 1.8±0.4
Extension reflex test score (G1H-G93A transgenic mice [2]; 130th day after birth): 2.0 ± 0.0
Extension reflex test score (G1H-G93A transgenic mice [2]; 135th day after birth): 2.0 ± 0.0
Extension reflex test score (G1H-G93A transgenic mice [2]; 140th day after birth): 2.0 ± 0.0
Extension reflex test score (G1H-G93A transgenic mice [2]; from the 130th day to 140th day after birth): 2.0±0.0
Footprint test score (G1H-G93A transgenic mice [3]; 70th day after birth): 0.0±0.0
Footprint test score (G1H-G93A transgenic mice [3]; 75th day after birth): 0.0±0.0
Footprint test score (G1H-G93A transgenic mice [3]; 80th day after birth): 0.0±0.0
Footprint test score (G1H-G93A transgenic mice [3]; 85th day after birth): 0.0±0.0
Footprint test score (G1H-G93A transgenic mice [3]; 90th day after birth): 0.0±0.0
Footprint test score (G1H-G93A transgenic mice [3]; 95th day after birth): 0.0±0.0
Footprint test score (G1H-G93A transgenic mice [3]; 100th day after birth): 0.0±0.0
Footprint test score (G1H-G93A transgenic mice [3]; 105th day after birth): 0.0±0.0
Footprint test score (G1H-G93A transgenic mice [3]; 110th day after birth): 0.1±0.3
Footprint test score (G1H-G93A transgenic mice [3]; 115th day after birth): 0.6±0.7
Footprint test score (G1H-G93A transgenic mice [3]; 120th day after birth): 1.8±1.0
Footprint test score (G1H-G93A transgenic mice [3]; 125th day after birth): 2.8±0.4
Footprint test score (G1H-G93A transgenic mice [3]; 130th day after birth): 3.4±0.5
Footprint test score (G1H-G93A transgenic mice [3]; 135th day after birth): 3.9±0.3
Footprint test score (G1H-G93A transgenic mice [3]; 140th day after birth): 4.0±0.0
